Measurements as given in PMC12499452, “The Multitarget Compound ZLY032 Achieves Treatment of Chronic Wounds” (Advanced Science, 2025).

Tests used:
PPARδ = target: T1, PPARδ (Homo sapiens, UniProt Q03181); assay: cellular thermal shift assay (CETSA), Western blot; assay type: cell-based; conditions: HEK293T cells
T1 construct: gene PPARD; apparently endogenous in HEK293T cells (no transfection told); Western blot read-out
T1 sequence (Q03181 1-441): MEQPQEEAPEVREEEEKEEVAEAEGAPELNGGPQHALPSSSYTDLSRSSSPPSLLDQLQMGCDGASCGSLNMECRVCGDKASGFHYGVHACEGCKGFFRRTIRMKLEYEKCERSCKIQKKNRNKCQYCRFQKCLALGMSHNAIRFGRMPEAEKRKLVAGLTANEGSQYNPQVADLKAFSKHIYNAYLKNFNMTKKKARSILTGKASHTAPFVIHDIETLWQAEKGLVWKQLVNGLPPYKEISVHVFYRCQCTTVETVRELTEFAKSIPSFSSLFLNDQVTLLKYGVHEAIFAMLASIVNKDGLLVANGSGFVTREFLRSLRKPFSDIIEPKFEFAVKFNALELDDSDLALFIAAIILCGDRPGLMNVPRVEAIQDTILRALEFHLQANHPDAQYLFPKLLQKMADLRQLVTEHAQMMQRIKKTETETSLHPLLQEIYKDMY

FFA1 = target: T2, FFA1 (Homo sapiens, UniProt O14842); assay: cellular thermal shift assay (CETSA), Western blot; assay type: cell-based; conditions: HEK293T cells
T2 construct: gene FFAR1; apparently endogenous in HEK293T cells (no transfection told); Western blot read-out

ASAL (from S. aureus) = target: T3, ASAL (from S. aureus) (Staphylococcus aureus, UniProt Q2FIB5); assay: surface plasmon resonance (Biacore T200, CM5 chip, immobilised protein); assay type: binding; conditions: read-out: affinity constant
T3 construct: gene argH; immobilised on CM5 chip
T3 sequence (Q2FIB5 1-459): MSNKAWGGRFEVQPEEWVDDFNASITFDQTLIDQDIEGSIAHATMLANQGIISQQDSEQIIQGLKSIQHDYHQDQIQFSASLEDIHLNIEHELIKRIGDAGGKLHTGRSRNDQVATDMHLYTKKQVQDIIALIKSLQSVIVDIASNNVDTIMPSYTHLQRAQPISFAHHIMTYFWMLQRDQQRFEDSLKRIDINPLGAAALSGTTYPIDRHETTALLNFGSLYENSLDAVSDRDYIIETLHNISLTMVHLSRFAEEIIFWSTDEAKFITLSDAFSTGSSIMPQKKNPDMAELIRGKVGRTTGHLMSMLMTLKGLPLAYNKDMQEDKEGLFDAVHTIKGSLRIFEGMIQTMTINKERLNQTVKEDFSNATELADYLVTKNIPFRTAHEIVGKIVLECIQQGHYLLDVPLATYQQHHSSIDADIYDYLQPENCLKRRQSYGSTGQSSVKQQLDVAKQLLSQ

T2 sequence (O14842 whole entry): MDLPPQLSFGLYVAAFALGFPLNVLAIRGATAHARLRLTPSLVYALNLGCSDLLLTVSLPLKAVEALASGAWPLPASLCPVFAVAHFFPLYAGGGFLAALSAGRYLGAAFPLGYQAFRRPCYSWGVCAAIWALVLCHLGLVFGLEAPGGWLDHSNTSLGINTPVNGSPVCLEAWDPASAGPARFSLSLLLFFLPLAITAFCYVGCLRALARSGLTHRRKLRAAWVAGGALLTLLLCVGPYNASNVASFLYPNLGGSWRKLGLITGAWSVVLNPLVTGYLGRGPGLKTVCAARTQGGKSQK

Cc1nc(-c2ccc(C(F)(F)F)cc2)sc1COc1ccc2c(c1)OC[C@H]2CC(=O)O [ZLY032]
cellular thermal shift assay (CETSA), Western blot (PPARδ): ZLY032 had direct binding ability with FFA1 and PPARδ (Figure S11, Supporting Information) | cellular thermal shift assay (CETSA), Western blot (FFA1): ZLY032 had direct binding ability with FFA1 and PPARδ (Figure S11, Supporting Information) | Kd (ASAL (from S. aureus)): 10.9 µM
